Literature values in patent US20180267043A1, “USE OF BIOMARKERS FOR PREDICTING CLINICAL SENSITIVITY TO CANCER TREATMENT” (CELGENE CORPORATION, priority 2014, published 2018).

Tests used:
[1] = target: T1, CRBN (Homo sapiens, UniProt Q96SW2); details: Ito et al., Science 2010; cited from earlier work
Target sequence in this assay (Q96SW2 whole entry): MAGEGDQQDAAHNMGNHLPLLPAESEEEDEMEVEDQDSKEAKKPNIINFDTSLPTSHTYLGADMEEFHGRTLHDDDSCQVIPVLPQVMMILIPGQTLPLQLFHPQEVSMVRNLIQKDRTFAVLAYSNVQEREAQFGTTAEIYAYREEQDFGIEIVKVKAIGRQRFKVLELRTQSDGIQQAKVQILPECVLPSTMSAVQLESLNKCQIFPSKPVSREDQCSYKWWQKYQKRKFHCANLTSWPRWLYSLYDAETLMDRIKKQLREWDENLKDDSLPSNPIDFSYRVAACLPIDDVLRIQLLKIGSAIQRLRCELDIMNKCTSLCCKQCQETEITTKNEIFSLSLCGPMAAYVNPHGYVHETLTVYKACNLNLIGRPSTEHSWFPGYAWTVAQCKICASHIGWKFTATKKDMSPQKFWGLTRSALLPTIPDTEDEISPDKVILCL

[2] = target: CRBN (Homo sapiens, UniProt Q96SW2, W386A/Y384A); details: double mutant; cited from earlier work
[3] = system: CRBN; details: individual point mutants; cited from earlier work
[4] = target: T1, CRBN; details: in vitro; cited from earlier work
Target sequence in this assay (Q96SW2 whole entry): as above
Target sequence in this assay (Q16531 whole entry partner): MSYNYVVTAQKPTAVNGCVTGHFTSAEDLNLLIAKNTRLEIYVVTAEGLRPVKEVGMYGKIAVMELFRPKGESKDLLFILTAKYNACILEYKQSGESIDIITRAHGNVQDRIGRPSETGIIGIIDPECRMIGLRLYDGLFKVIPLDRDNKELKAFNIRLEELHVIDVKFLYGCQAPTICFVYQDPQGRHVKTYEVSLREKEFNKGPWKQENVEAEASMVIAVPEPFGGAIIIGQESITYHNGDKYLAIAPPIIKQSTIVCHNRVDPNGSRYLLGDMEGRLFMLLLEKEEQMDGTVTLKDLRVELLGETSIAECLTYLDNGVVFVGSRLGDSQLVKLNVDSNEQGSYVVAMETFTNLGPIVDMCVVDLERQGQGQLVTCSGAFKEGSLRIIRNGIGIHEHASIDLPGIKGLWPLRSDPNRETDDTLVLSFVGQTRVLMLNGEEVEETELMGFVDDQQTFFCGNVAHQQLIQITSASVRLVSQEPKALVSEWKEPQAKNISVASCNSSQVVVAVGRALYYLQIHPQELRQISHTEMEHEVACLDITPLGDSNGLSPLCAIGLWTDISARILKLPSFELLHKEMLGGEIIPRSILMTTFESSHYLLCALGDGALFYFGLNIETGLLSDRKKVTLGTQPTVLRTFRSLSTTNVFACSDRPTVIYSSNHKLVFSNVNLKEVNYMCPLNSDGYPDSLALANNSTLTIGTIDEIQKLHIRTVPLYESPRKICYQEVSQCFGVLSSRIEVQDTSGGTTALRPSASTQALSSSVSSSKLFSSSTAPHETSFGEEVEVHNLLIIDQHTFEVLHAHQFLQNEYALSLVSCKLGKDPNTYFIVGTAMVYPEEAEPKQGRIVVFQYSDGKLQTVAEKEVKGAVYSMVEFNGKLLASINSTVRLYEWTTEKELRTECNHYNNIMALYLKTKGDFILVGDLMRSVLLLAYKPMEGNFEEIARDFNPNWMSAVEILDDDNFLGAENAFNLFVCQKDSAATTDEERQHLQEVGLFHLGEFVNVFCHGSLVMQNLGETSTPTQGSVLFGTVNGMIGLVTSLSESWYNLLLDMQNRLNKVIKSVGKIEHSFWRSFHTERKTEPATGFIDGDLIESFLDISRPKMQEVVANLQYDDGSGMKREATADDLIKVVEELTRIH
Target sequence in this assay (Q13619 whole entry partner): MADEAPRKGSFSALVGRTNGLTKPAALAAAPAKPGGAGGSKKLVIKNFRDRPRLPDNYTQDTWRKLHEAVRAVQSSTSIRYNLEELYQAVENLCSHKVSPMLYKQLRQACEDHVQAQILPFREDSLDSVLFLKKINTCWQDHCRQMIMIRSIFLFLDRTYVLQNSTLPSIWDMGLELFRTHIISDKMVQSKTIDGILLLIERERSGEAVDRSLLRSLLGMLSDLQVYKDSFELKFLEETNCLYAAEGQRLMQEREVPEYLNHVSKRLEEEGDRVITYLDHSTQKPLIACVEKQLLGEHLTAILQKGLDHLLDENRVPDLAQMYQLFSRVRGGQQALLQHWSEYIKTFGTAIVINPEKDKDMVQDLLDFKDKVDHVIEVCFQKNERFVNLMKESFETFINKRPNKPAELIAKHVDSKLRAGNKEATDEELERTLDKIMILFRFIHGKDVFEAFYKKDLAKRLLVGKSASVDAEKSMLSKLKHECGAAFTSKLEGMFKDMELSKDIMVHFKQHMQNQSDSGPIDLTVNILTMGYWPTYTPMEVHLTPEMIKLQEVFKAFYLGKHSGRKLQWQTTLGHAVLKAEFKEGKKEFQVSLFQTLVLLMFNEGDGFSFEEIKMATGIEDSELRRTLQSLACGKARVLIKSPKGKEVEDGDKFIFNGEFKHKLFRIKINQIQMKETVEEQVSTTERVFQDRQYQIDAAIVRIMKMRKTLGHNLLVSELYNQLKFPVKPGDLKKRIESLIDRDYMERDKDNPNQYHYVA
Target sequence in this assay (P62877 whole entry partner): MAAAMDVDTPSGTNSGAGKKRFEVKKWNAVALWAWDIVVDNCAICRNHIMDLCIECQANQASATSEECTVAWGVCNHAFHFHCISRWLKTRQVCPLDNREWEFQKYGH

Chain of CRBN (Homo sapiens, UniProt Q96SW2, W386A/Y384A) (Q96SW2 whole entry Y384A/W386A): as the sequence (Q96SW2 whole entry) above, with Y384A, W386A counted along it

Compound: O=C1CCC(N2C(=O)c3ccccc3C2=O)C(=O)N1 (stereo not shown) [thalidomide]
- Binding to CRBN [1]: binds to thalidomide
- Binding to CRBN double mutant (Y384A, W386A) [2]: lowest thalidomide-binding activity
- Binding to CRBN point mutants Y384A and W386A [3]: both defective for thalidomide binding
- Auto-ubiquitination of CRBN [4]: inhibit auto-ubiquitination of CRBN in vitro
